Reference: the NIST ThermoML archive (doi:10.1016/j.jct.2007.09.010)

Legend:
[1] = refractive index (other wavelength) (dimensionless); conditions: 101.32 kPa, Liquid, Wavelength=632.8 nm, Standard Abbe refractometry
[2] = refractive index (other wavelength) (dimensionless); xn = mol fraction of the nth substance listed; conditions: 293.6 K, 101.32 kPa, Liquid, Wavelength=632.8 nm

N#Cc1ccccc1 [benzonitrile]
[1]
Conditions | refractive index
283.93 K | 1.5294
285.77 K | 1.5285
287.73 K | 1.5276
289.74 K | 1.5266
291.66 K | 1.5256
293.65 K | 1.5247

N#Cc1ccccc1 [benzonitrile] + CCCCCCCCCCCC
[2]
Conditions | refractive index
x1 = 0.0994 | 1.4247
x1 = 0.195 | 1.4302
x1 = 0.2945 | 1.436
x1 = 0.3954 | 1.4434
x1 = 0.4923 | 1.4507
x1 = 0.5859 | 1.4608
x1 = 0.6782 | 1.4711
x1 = 0.768 | 1.4832
x1 = 0.8871 | 1.5022

CCCCCCCCCCCC [dodecane]
[1]
Conditions | refractive index
282.19 K | 1.4249
284.24 K | 1.424
286.06 K | 1.4233
288.08 K | 1.4225
289.91 K | 1.4217
291.91 K | 1.4207
293.94 K | 1.4199
